Entries after “also recorded” stand apart in the source; their conditions may differ.
What was measured:
[1] = design: species or system mice; settings: mouse, in vivo, ip
epidermal hyperplasia = test: rat model of TPA-induced epidermal hyperplasia; format: in vivo, Wistar rats; settings: rat dorsal skin
Experimental: A rat model of epidermal hyperplasia was used to test the pharmacological activity of 2-[(3,5-difluoro-3'-methoxy-1,1'-biphenyl-4-yl)amino]nicotinic acid.
Wistar rats (200- 250 g) were obtained from Harland (Sant Feliu de Codines, Spain) and maintained in standard Chow diet with light:dark cycles and allowed to feed ad libitum during all procedures. TPA (12-O-tetradecanoylphorbol-13-acetate) was purchased from Sigma Chemicals and a stock solution of 10 mg/ml was prepared in acetone.
On the morning of day 1, the back of each animal (n=5) was shaved so that at least three 2x2 sq cm nude skin areas were uncovered. Six hours later, 200 µL of acetone (vehicle) or a solution of TPA ([…]) in acetone was applied onto the skin by employing a silicone pad in which three 2x2 sq cm areas had been cut out. Area A received acetone (vehicle), whereas B and C received TPA. Twenty-four hours after TPA application, a solution of the active ingredient 2-[(3,5-difluoro-3'-methoxy-1,1'-biphenyl-4-yl)amino]nicotinic acid (1% in acetone) was applied to area C, whereas the remainder areas received acetone. Treatment continued for 7 days with daily application of 2-[(3,5-difluoro-3'-methoxy-1,1'-biphenyl-4-yl)amino]nicotinic acid or acetone. Six hours after last application, animals were sacrificed and skin was excised and processed for histological examination using H/E staining. Hyperplasia was evaluated following a score of 0 (normal skin thickness, 2-3 layers) to 3 (marked hyperplastic epidermis, >8 cell layers) by a blinded expert pathologist.

[2] = test system: peripheral blood mononuclear cells; test: in vitro assay using peripheral blood mononuclear cells; format: cell-based; settings: compared with leflunomide
psoriasis = settings: 190 subjects with active psoriatic arthritis and psoriasis, 24 weeks; people with mild to moderate psoriasis; cited from earlier work
[3] = topical 1% in acetone, 7 applications, histology day 8

SMILES	levels of bilirrubin in plasma [1]	levels of transaminases in plasma [1]	inflammation induced by TPA (dermal) (epidermal hyperplasia; [3])	mixed perivascular mononuclear infiltration (macrophages, lymphocytes and mastocytes) (epidermal hyperplasia; [3])	hyperplasia (histological score 0 to 3) (epidermal hyperplasia; topical once daily application of 1% in acetone for 7 days, H/E staining, day 8)	potency [2]	benefit compared with placebo (psoriasis)
COc1cccc(-c2cc(F)c(Nc3ncccc3C(=O)O)c(F)c2)c1 [2-[(3,5-difluoro-3'-methoxy-1,1'-biphenyl-4-yl)amino]nicotinic acid]	does not show an increase	does not show an increase	counteracts; also recorded: able to reduce epidermal hyperplasia and dermal inflammation	greatly diminished	reverted; also recorded: counteracts; also recorded: able to reduce epidermal hyperplasia	much higher potency than leflunomide	–
Cc1oncc1C(=O)Nc1ccc(C(F)(F)F)cc1 [leflunomide, 4-Isoxazolecarboxamide, 5-methyl-N-[4-(trifluoromethyl)phenyl]-]	–	–	–	–	–	–	only a moderate benefit compared with placebo

Source: patent EP2594271A1, “2-[(3,5-difluoro-3'-methoxy-1,1'-biphenyl-4-yl)amino]nicotinic acid for the treatment of psoriasis” (Almirall, S.A., priority 2011, dated 2013)
